Patent US20250204528A1, “USE OF 2-AMINO-3-INDOLYL BUTYRIC ACID OR 3-METHYLPYRROLIDINE-2-CARBOXYLIC ACID AS PLANT IMMUNITY ELICITOR” (NANJING TIANNONG BIOTECHNOLOGY CO., LTD, priority 2021, published 2025)

Experiments:
[1] = system: tomato spotted wilt viruses; assay: Induction of tobacco against infection by tomato spotted wilt viruses; assay type: in vivo, Nicotiana benthamiana; settings: for Disease index / Relative immune effect (%): tobacco; for Disease indexes of the tobacco / Relative immune effects: each treatment in concentration range 0.1-10 nm; for Content of virus proteins: relative protein content in leaves after 3 d, Western blot/Image J
Method: Tomato spotted wilt viruses were taken from Yunnan province of China. An initial virus source was placed in a refrigerator at −80° C. for storage and activated by inoculation on Nicotiana benthamiana leaves by using a friction inoculation. Virus plasmids were extracted for transformation of Escherichia coli competent cells. The bacteria were coated on a resistant plate for culture, single colonies were selected for PCR screening, and positive colonies were selected for sequencing and subsequent plasmid extraction. The plasmids with normal sequencing were added into Agrobacterium competent cells and subjected to the Agrobacterium transformation by using an electric shock method. The transformed Agrobacterium liquid was coated on a screening plate with corresponding resistance and cultured at 28±1° C. for 48 h. Single colonies of the Agrobacterium on the transformation plate were selected, placed in a 5-mL LB medium containing the corresponding resistance and cultured overnight at 28° C. and 180 rpm. The bacteria were collected by centrifugation at 6,000 rpm for 2 min, suspended in an Agrobacterium treatment buffer (10 mM MgCl2, 10 mM MES and 10 μM acetosyringone) to enable the OD600 value of the suspension to be 0.5, and treated in a dark place at 28° C. for 3 h for later use.
2-amino-3-indolyl butyric acid was dissolved in distilled water and gradiently diluted with distilled water to obtain solutions of 0 nM, 0.1 nM, 1 nM and 10 nM. Nicotiana benthamiana seeds were sown in a small pot, illuminated at 22±1° C. for 12 h/12 h, and cultured for 5 weeks. Healthy tobacco plants (preferably 8-10 leaves) were selected and sprayed with the 2-amino-3-indolyl butyric acid solutions at the above concentrations on stems and leaves. The treatment was repeated once every 24 h and a total of two treatments was performed. After 24 h, the Agrobacterium liquid with the uniform concentration was extracted by using a 1 mL injector, an injection port of the injector was directly pressed on a small hole on the back of the tobacco leaves, and the bacterium liquid was slowly injected to infiltrate the whole leaves. The infiltrated tobacco was transferred to the environment at 22±1° C. and with 12 h/12 h illumination for culturing. The tobacco was observed and recorded by a microscope after 3 d. Meanwhile, the sample was taken, the gray levels of protein bands were analyzed by using Western blot combined with an Image J software, and the relative protein content of the viruses in the leaves was determined. The disease condition of the tobacco leaves was observed after 15 d and the disease index was recorded according to GB/T23222-2008 Grade and investigation method of tobacco diseases and insect pests. The formula was as follows: […]
Grading standard of diseases caused by tomato spotted wilt viruses (grading and investigation by taking plants as units): • grade 0: the whole plants were disease-free; • grade 1: the veins of interior leaves were obvious or leaves were slightly spotted, and the diseased plants were not obviously dwarfed; • grade 3: one third leaves were spotted but not deformed, or the plants were dwarfed to the heights of more than three fourths of those of normal plants; • grade 5: one third to one half leaves were spotted, or a few leaves were deformed, or main veins were blackened, or the plants were dwarfed to the heights of two thirds to three fourths of those of the normal plants; • grade 7: one half to two thirds leaves were spotted or deformed, or a few main lateral veins were necrotic, or the plants were dwarfed to the heights of one half to two thirds of those of the normal plants; and • grade 9: the leaves of the whole plates were spotted, severely deformed or necrotic, or the diseased plants were dwarfed to the heights of […] of those of the normal plants.

[2] = system: hydroponic wheat; assay: Wheat under drought stress (25% PEG-6000); assay type: in vivo; settings: for Drought damage index (%) / Dry weight(g) Overground part / Dry weight(g) Underground part / Fresh weight (g) Overground part / Fresh weight (g) Underground part / Root length (cm): 25% PEG-6000 6 d, recovery 7 d; for Drought damage index reduced by / Fresh weight of the overground part improved by / Fresh weight of the underground part improved by / Root length of the wheat seedlings increased by: compared with the control group
Method: A 6-mesh sieve was used as a container to hydroponic wheat, 50 grains were sieved each time, a ½ Hoagland nutrient solution was replaced every other two days, a 2-amino-3-indolyl butyric acid solution was sprayed on the leaf surfaces when the wheat grew to a stage of two true leaves and one terminal bud, wherein the concentrations of 2-amino-3-indolyl butyric acid were 0 nm, 100 nm and 1,000 nm, and meanwhile, 0.02% of Tween-20 was added as a surfactant. After continuously spraying for two days, on the third day, the hydroponic nutrient solution was replaced with a ½ Hoagland nutrient solution containing 25% PEG-6000 to perform a stress treatment, a rehydration treatment was performed after the drought stress for 6 d, the wheat recovered to grow for 7 d in a normal nutrient solution, a drought damage index was observed and determined, and the root length and biomass were determined.
The performance characteristics of the leaves subjected to the drought damage were similar to those of the leaves subjected to a salt damage. The drought damage rate and the drought damage index were introduced by using the evaluation index of the salt damage, a drought damage index formula was as follows, and the drought damage grading standard was shown in table 16.

[3] = system: ryegrass; assay: Ryegrass under high temperature stress; assay type: in vivo; set-up: Heat damage index: scale not given here; settings: for Heat damage index: 45° C. 12 h, recovery 7 d; for Heat damage index of the ryegrass decreased: vs control group
Method: 2-amino-3-indolyl butyric acid was dissolved in distilled water and gradiently diluted with distilled water to obtain solutions of 1 nm, 10 nm, 100 nm and 1,000 nm. A blank control was additionally set. Meanwhile, 0.02% Tween 20 was added as a surfactant. Each concentration was set to 4 replicates while a room temperature blank control was set. Ryegrass seeds were weighed at 0.8 g per pot, sown in a pot with the diameter of 8.5 cm and planted in a greenhouse at 25° C. with the humidity of 60%-70% and the light intensity of 200 μmolm^−2s^−1 (12 h light/12 h dark). After 7 d of growth, the ryegrass was treated by spraying the 2-amino-3-indolyl butyric acid solution on the leaf surfaces twice for 24 h. 24 h after the second spraying, the ryegrass was transferred to an illumination incubator at 45° C. for a high temperature stress treatment for 12 h. The plants were taken out and transferred to the greenhouse at 25° C. for recovery for 7 d. The damage conditions of the plants were observed and counted, and the heat damage grades were calculated. The heat damage grading standard was shown in table 8 and a calculation formula of the heat damage index was as follows.

[4] = 10 nm, as printed with % in summary
[5] = treatment concentration 0.1 nm, 15 d after inoculation
[6] = treatment concentration 1 nm, 15 d after inoculation

| Compound | Disease index [1, 4] [%] | Disease indexes of the tobacco [1] | Relative immune effects [1] [%] | Content of virus proteins ([1]; treatment concentration 0.1 nm) [b] | Relative immune effect (%) ([1]; treatment concentration 0.1 nm) | Disease index [1, 5] [b] | Content of virus proteins ([1]; treatment concentration 1 nm) [c] | Relative immune effect (%) ([1]; treatment concentration 1 nm) | Disease index [1, 6] [c] | Relative immune effect (%) ([1]; treatment concentration 10 nm) | Drought damage index (%) ([2]; 100 nm) | Dry weight(g) Overground part ([2]; 100 nm) [b g] | Dry weight(g) Underground part ([2]; 100 nm) | Fresh weight (g) Overground part ([2]; 100 nm) [b g] | Fresh weight (g) Underground part ([2]; 100 nm) [b g] | Root length (cm) ([2]; 100 nm) | Drought damage index (%) ([2]; 1,000 nm) | Dry weight(g) Overground part ([2]; 1,000 nm) [a g] | Dry weight(g) Underground part ([2]; 1,000 nm) [a g] | Fresh weight (g) Overground part ([2]; 1,000 nm) [a g] | other results |
| --- | --- | --- | --- | --- | --- | --- | --- | --- | --- | --- | --- | --- | --- | --- | --- | --- | --- | --- | --- | --- | --- |
| CC(c1c[nH]c2ccccc12)C(N)C(=O)O (centres unmarked) | 30.42 | lower than 50 | ≥ 45 | 0.41 ± 0.005 | 46.68 | 49.70 ± 1.51 | 0.32 ± 0.014 | 56.11 | 40.91 ± 3.14 | 67.36 | 44 | 0.82 ± 0.01 | 0.35 ± 0.01a g | 7.28 ± 0.05 | 3.66 ± 0.01 | 13.97 ± 0.03a cm | 24 | 0.90 ± 0.05 | 0.38 ± 0.01 | 8.87 ± 0.09 | Fresh weight (g) Underground part ([2]; 1,000 nm): 4.51 ± 0.02a g; Root length (cm) ([2]; 1,000 nm): 14.60 ± 0.01a cm; Drought damage index reduced by ([2]; 1,000 nm): 44%; Fresh weight of the overground part improved by ([2]; 1,000 nm): 44.93%; Fresh weight of the underground part improved by ([2]; 1,000 nm): 54.98%; Root length of the wheat seedlings increased by ([2]; 1,000 nm): 10.86%; Heat damage index ([3]; 1 nm): 61; Heat damage index ([3]; 10 nm): 57; Heat damage index ([3]; 100 nm): 43; Heat damage index ([3]; 1,000 nm): 25; Heat damage index of the ryegrass decreased ([3]; 1,000 nm): 65% |
| CC1CCNC1C(=O)O (centres unmarked) [3-methylpyrrolidine-2-carboxylic acid] | 21.44 | lower than 50 | ≥ 50 | 0.37 ± 0.003 | 50.84 | 41.31 ± 0.34 | 0.24 ± 0.001 | 68.43 | 27.89 ± 2.16 | 75.73 | 39 | 0.98 ± 0.07 | 0.47 ± 0.05b g | 7.83 ± 0.10 | 3.85 ± 0.05 | 14.50 ± 0.21b cm | 20 | 1.11 ± 0.06 | 0.55 ± 0.03 | 9.12 ± 0.13 | Fresh weight (g) Underground part ([2]; 1,000 nm): 4.67 ± 0.11a g; Root length (cm) ([2]; 1,000 nm): 15.03 ± 0.31a cm; Drought damage index reduced by ([2]; 1,000 nm): 61%; Fresh weight of the overground part improved by ([2]; 1,000 nm): 44.08%; Fresh weight of the underground part improved by ([2]; 1,000 nm): 36.55%; Root length of the wheat seedlings increased by ([2]; 1,000 nm): 12.58%; Heat damage index ([3]; 1 nm): 57; Heat damage index ([3]; 10 nm): 50; Heat damage index ([3]; 100 nm): 38; Heat damage index ([3]; 1,000 nm): 20; Heat damage index of the ryegrass decreased ([3]; 1,000 nm): 68% |
